Patent US8426623B2, “Surface modified nanoparticle and preparation method thereof” (National Tsing Hua University, priority 2010, dated 2013)

Assay: Anti-oxidative activity of phenol compound (H2O2 scavenging)
Conditions: substance/H2O2=1, reacted with H2O2 before H2O2 was measured; versus unreacted H2O2 control; FIG. 1
Procedure: H2O2 was the tested ROS in testing anti-oxidative activity of HPPDA. There are 3 sets in this experiment, including H2O2, HPPDA/H2O2 and ascorbic acid/H2O2, where HPPDA/H2O2=1, ascorbic acid/H2O2=1, and HPPDA, ascorbic were respectively reacted with H2O2 before H2O2 was measured. The control is represented with H2O2 without undergoing any reaction.
Referring to FIG. 1, as the comparison result with control has shown, the concentration of H2O2 was lowered after reacted with ascorbic acid and HPPDA (# for significant difference, p<0.01). Particularly, H2O2 concentration was lowered by ascorbic acid with 30 μM and lowered by HPPDA with 40 μM; this means better H2O2 absorption by HPPDA than ascorbic acid.

SMILES: O=C(O)/C=C/C=C/c1ccc(O)cc1 [HPPDA, (2E,4E)-5-(4-hydroxyphenyl)penta-2,4-dienoic acid]
- H2O2 concentration lowered by: 40 µM

SMILES: O=C1O[C@H]([C@@H](O)CO)C(O)=C1O [ascorbic acid]
- H2O2 concentration lowered by: 30 µM
